Experiments:
Assay in all cases: cell viability (% survival relative to DMSO control, bortezomib = 0%); higher = less cytotoxic
Settings in all cases: 72 h
LAMA-84 = system: LAMA-84
Outline: (§1)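 Seeding density for each of the 10 AML and 5 CML cell lines was titrated to the linear growth range. Cells went into 384-well plates pre-printed in duplicate with compounds at 1, 10, 100, 1000 or 10000 nM and were held for 72 h at 37 °C with 5% CO2. CellTiter-Glo luminescence then provided the readout. Percent survival is expressed relative to vehicle at 100% and a 10 µM positive control at 0%, averaged over duplicates.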

Mono-Mac-6 = system: Mono-Mac-6
Outline: as §1

NOMO-1 = system: NOMO-1
Outline: as §1

## O=C(O)c1cc2sccc2[nH]1 [4H-thieno[3,2-b]pyrrole-5-carboxylic acid]
LAMA-84; 1 nM
  cell viability: 101%
LAMA-84; 10 nM
  cell viability: 99.3%
LAMA-84; 100 nM
  cell viability: 110%
LAMA-84; 1000 nM
  cell viability: 95.4%
LAMA-84; 10000 nM
  cell viability: 105%
Mono-Mac-6; 1 nM
  cell viability: 104%
Mono-Mac-6; 10 nM
  cell viability: 92.6%
Mono-Mac-6; 100 nM
  cell viability: 99.5%
Mono-Mac-6; 1000 nM
  cell viability: 92.6%
Mono-Mac-6; 10000 nM
  cell viability: 101%
NOMO-1; 1 nM
  cell viability: 105%
NOMO-1; 10 nM
  cell viability: 97.8%
NOMO-1; 100 nM
  cell viability: 98.3%
NOMO-1; 1000 nM
  cell viability: 106%
NOMO-1; 10000 nM
  cell viability: 110%

## CC(/C=C1\SC(=S)N(CC(=O)O)C1=O)=C\c1ccccc1 [Epalrestat]
LAMA-84; 1 nM
  cell viability: 104%
LAMA-84; 10 nM
  cell viability: 99.8%
LAMA-84; 100 nM
  cell viability: 82.6%
LAMA-84; 1000 nM
  cell viability: 104%
LAMA-84; 10000 nM
  cell viability: 99.8%
Mono-Mac-6; 1 nM
  cell viability: 106%
Mono-Mac-6; 10 nM
  cell viability: 103%
Mono-Mac-6; 100 nM
  cell viability: 103%
Mono-Mac-6; 1000 nM
  cell viability: 93.9%
Mono-Mac-6; 10000 nM
  cell viability: 116%
NOMO-1; 1 nM
  cell viability: 108%
NOMO-1; 10 nM
  cell viability: 101%
NOMO-1; 100 nM
  cell viability: 93.4%
NOMO-1; 1000 nM
  cell viability: 102%
NOMO-1; 10000 nM
  cell viability: 103%

## C1CCc2nnc(C34CC5CC(CC(C5)C3)C4)n2CC1 [MERCK-544]
LAMA-84; 1 nM
  cell viability: 102%
LAMA-84; 10 nM
  cell viability: 94.5%
LAMA-84; 100 nM
  cell viability: 91.9%
LAMA-84; 1000 nM
  cell viability: 92.9%
LAMA-84; 10000 nM
  cell viability: 101%
Mono-Mac-6; 1 nM
  cell viability: 95.9%
Mono-Mac-6; 10 nM
  cell viability: 100%
Mono-Mac-6; 100 nM
  cell viability: 93.3%
Mono-Mac-6; 1000 nM
  cell viability: 97.7%
Mono-Mac-6; 10000 nM
  cell viability: 96%
NOMO-1; 1 nM
  cell viability: 102%
NOMO-1; 10 nM
  cell viability: 95.8%
NOMO-1; 100 nM
  cell viability: 89.3%
NOMO-1; 1000 nM
  cell viability: 97.4%
NOMO-1; 10000 nM
  cell viability: 109%

## CC(C)Cc1sc(N)nc1-c1ccc(P(=O)(O)O)o1
LAMA-84; 1 nM
  cell viability: 111%
LAMA-84; 10 nM
  cell viability: 97.4%
LAMA-84; 100 nM
  cell viability: 102%
LAMA-84; 1000 nM
  cell viability: 94.4%
LAMA-84; 10000 nM
  cell viability: 80.3%
Mono-Mac-6; 1 nM
  cell viability: 97.6%
Mono-Mac-6; 10 nM
  cell viability: 85.3%
Mono-Mac-6; 100 nM
  cell viability: 95.2%
Mono-Mac-6; 1000 nM
  cell viability: 101%
Mono-Mac-6; 10000 nM
  cell viability: 86.6%
NOMO-1; 1 nM
  cell viability: 97.7%
NOMO-1; 10 nM
  cell viability: 96.9%
NOMO-1; 100 nM
  cell viability: 98%
NOMO-1; 1000 nM
  cell viability: 99.5%
NOMO-1; 10000 nM
  cell viability: 83.9%

## COc1cc2c(NC3CCN(C)CC3)nc(N3CCCN(C)CC3)nc2cc1OCCCN(C)C [UNC0224]
LAMA-84; 1 nM
  cell viability: 91.1%
LAMA-84; 10 nM
  cell viability: 106%
LAMA-84; 100 nM
  cell viability: 96.5%
LAMA-84; 1000 nM
  cell viability: 95.9%
LAMA-84; 10000 nM
  cell viability: 95.8%
Mono-Mac-6; 1 nM
  cell viability: 100%
Mono-Mac-6; 10 nM
  cell viability: 116%
Mono-Mac-6; 100 nM
  cell viability: 101%
Mono-Mac-6; 1000 nM
  cell viability: 98.5%
Mono-Mac-6; 10000 nM
  cell viability: 81.4%
NOMO-1; 1 nM
  cell viability: 103%
NOMO-1; 10 nM
  cell viability: 111%
NOMO-1; 100 nM
  cell viability: 98.4%
NOMO-1; 1000 nM
  cell viability: 95.2%
NOMO-1; 10000 nM
  cell viability: 90.4%

## [N-]=[N+]=CC(=O)CC[C@H](N)C(=O)O [6-Diazo-5-oxo-L-norleucine]
LAMA-84; 1 nM
  cell viability: 98.5%
LAMA-84; 10 nM
  cell viability: 98.8%
LAMA-84; 100 nM
  cell viability: 101%
LAMA-84; 1000 nM
  cell viability: 97.7%
LAMA-84; 10000 nM
  cell viability: 100%
Mono-Mac-6; 1 nM
  cell viability: 88%
Mono-Mac-6; 10 nM
  cell viability: 90.2%
Mono-Mac-6; 100 nM
  cell viability: 92.4%
Mono-Mac-6; 1000 nM
  cell viability: 97.8%
Mono-Mac-6; 10000 nM
  cell viability: 104%
NOMO-1; 1 nM
  cell viability: 98.9%
NOMO-1; 10 nM
  cell viability: 99.9%
NOMO-1; 100 nM
  cell viability: 104%
NOMO-1; 1000 nM
  cell viability: 97.1%
NOMO-1; 10000 nM
  cell viability: 106%

## CN(C/C=C/C#CC(C)(C)C)Cc1cccc2ccccc12 [Terbinafine]
LAMA-84; 1 nM
  cell viability: 104%
LAMA-84; 10 nM
  cell viability: 97.7%
LAMA-84; 100 nM
  cell viability: 110%
LAMA-84; 1000 nM
  cell viability: 101%
LAMA-84; 10000 nM
  cell viability: 93.9%
Mono-Mac-6; 1 nM
  cell viability: 103%
Mono-Mac-6; 10 nM
  cell viability: 96.2%
Mono-Mac-6; 100 nM
  cell viability: 102%
Mono-Mac-6; 1000 nM
  cell viability: 98.7%
Mono-Mac-6; 10000 nM
  cell viability: 91.2%
NOMO-1; 1 nM
  cell viability: 99.3%
NOMO-1; 10 nM
  cell viability: 101%
NOMO-1; 100 nM
  cell viability: 96.7%
NOMO-1; 1000 nM
  cell viability: 103%
NOMO-1; 10000 nM
  cell viability: 96.9%

## N[C@](CCCCB(O)O)(CCN1CCCCC1)C(=O)O [Arginase inhibitor 1]
LAMA-84; 1 nM
  cell viability: 99.9%
LAMA-84; 10 nM
  cell viability: 102%
LAMA-84; 100 nM
  cell viability: 96.1%
LAMA-84; 1000 nM
  cell viability: 102%
LAMA-84; 10000 nM
  cell viability: 88.9%
Mono-Mac-6; 1 nM
  cell viability: 101%
Mono-Mac-6; 10 nM
  cell viability: 83.8%
Mono-Mac-6; 100 nM
  cell viability: 93.1%
Mono-Mac-6; 1000 nM
  cell viability: 93.8%
Mono-Mac-6; 10000 nM
  cell viability: 94.5%
NOMO-1; 1 nM
  cell viability: 91.3%
NOMO-1; 10 nM
  cell viability: 94.5%
NOMO-1; 100 nM
  cell viability: 103%
NOMO-1; 1000 nM
  cell viability: 96.4%
NOMO-1; 10000 nM
  cell viability: 93.9%

From the supplement of paper PMC8671470
